Reference: ChEMBL document CHEMBL5346899, “PKM2/PDK1 dual-targeted shikonin derivatives restore the sensitivity of EGFR-mutated NSCLC cells to gefitinib by remodeling glucose metabolism” (Eur J Med Chem, 2023)
Calls of active or inactive are those of the source. The calls are words filed in the database; no cut-off is given here.

Tests used:
NCI-H1975 [1] = assay: cells; format: functional, cell-based; details: Homo sapiens, NCI-H1975, 24 h
Description: Antiproliferative activity against human NCI-H1975 cells assessed as inhibition of cell growth incubated for 24 hrs by CCK-8 assay

HCC827 [2] = assay: Antiproliferative activity against human HCC827 cells assessed as inhibition of clone formation rate; format: functional, cell-based
A549 [3] = assay: Induction of apoptosis in human A549 cells assessed as early apoptotic cells at 2 micromol/L incubated for 24 hrs by Annexin V-FITC/PI staining based analysis (reference value: […]%); format: functional; details: dose 2 µmol/L
NCI-H1975 [4] = assay: Induction of apoptosis in human NCI-H1975 cells assessed as late apoptotic cells at 1 micromol/L incubated for 24 hrs by Annexin V-FITC/PI staining based analysis (reference value: 2.66%); format: functional; details: dose 1 µmol/L, at 1 µM
NCI-H1975 [5] = assay: Induction of apoptosis in human NCI-H1975 cells assessed as regulation of Caspase-9 expression by Western blot analysis; format: functional, cell-based
NCI-H1975 [6] = assay: Induction of apoptosis in human NCI-H1975 cells assessed as regulation of Caspase-3 expression by Western blot analysis; format: functional, cell-based
NCI-H1975 [7] = assay: Induction of apoptosis in human NCI-H1975 cells assessed as regulation of Fas expression by Western blot analysis; format: functional, cell-based
NCI-H1975 [8] = assay: Induction of apoptosis in human NCI-H1975 cells assessed as regulation of Smac expression by Western blot analysis; format: functional, cell-based
NCI-H1975 [9] = assay: Induction of mitochondrial transmembrane potential dissipation in human NCI-H1975 cells assessed as cells with low mitochondrial transmembrane potential at 0.5 micromol/L by FL-1/FL-2 channel based fluorescence analysis (reference value: 2.13%); format: functional; details: dose 0.5 µmol/L; at 0.5 µM
NCI-H1299 = assay: Induction of intracellular ROS accumulation in human NCI-H1299 cells; format: functional, cell-based
A549 [10] = assay: Induction of intracellular ROS accumulation in human A549 cells; format: functional, cell-based
HCC827 [11] = assay: Induction of intracellular ROS accumulation in human HCC827 cells; format: functional, cell-based
Pyruvate kinase PKM = Pyruvate kinase PKM (Homo sapiens, UniProt P14618); assay: Activation of PKM2 in human HCC827 cells at 1 to 2 micromol/L by Western blot analysis; format: cell-based; details: filed as activator, dose 1-2 µmol/L
HCC827 [12] = assay: Effect on PKM2 protein expression in human HCC827 cells at 1 to 2 micromol/L by Western blot analysis; format: functional, cell-based; details: dose 1-2 µmol/L
[13] = target: [Pyruvate dehydrogenase (acetyl-transferring)] kinase isozyme 1, mitochondrial (Homo sapiens, UniProt Q15118); assay: Inhibition of PDK1 in human NCI-H1975 cells at 1 to 2 micromol/L by Western blot analysis; format: cell-based; details: dose 1-2 µmol/L
NCI-H1975 [14] = assay: Upregulation of PDH protein expression in human NCI-H1975 cells at 1 to 2 micromol/L by Western blot analysis; format: functional, cell-based; details: dose 1-2 µmol/L
HCC827 [15] = assay: Upregulation of PDH protein expression in human HCC827 cells at 1 to 2 micromol/L by Western blot analysis; format: functional, cell-based; details: dose 1-2 µmol/L
NCI-H1975 [16] = assay: Antiproliferative activity against siRNA mediated […] knockdown human NCI-H1975 cells assessed as inhibition of cell growth incubated for 24 hrs by CCK-8 assay; format: functional, cell-based; details: NCI-H1975, 24 h
NCI-H1975 [17] = assay: Induction of apoptosis in human NCI-H1975 cells with siRNA mediated […] knockdown assessed as early apoptotic cells at 1 micromol/L incubated for 24 hrs by Annexin V-FITC/PI staining based analysis (reference value: 2.54%); format: functional; details: dose 1 µmol/L, at 1 µM
NCI-H1975 [18] = assay: Induction of apoptosis in human NCI-H1975 cells with siRNA mediated […] knockdown assessed as early apoptotic cells at 2 micromol/L incubated for 24 hrs by Annexin V-FITC/PI staining based analysis (reference value: 2.54%); format: functional; details: dose 2 µmol/L, at 2 µM
NCI-H1975 [19] = assay: Induction of apoptosis in human NCI-H1975 cells with siRNA mediated […] knockdown assessed as late apoptotic cells at 2 micromol/L incubated for 24 hrs by Annexin V-FITC/PI staining based analysis (reference value: 6.25%); format: functional; details: dose 2 µmol/L, at 2 µM
HCC827 [20] = assay: Antiproliferative activity against human HCC827 cells transfected with siRNA assessed as inhibition of cell growth incubated for 24 hrs by CCK-8 assay; format: functional, cell-based; details: HCC827, 24 h
[21] = Toxicity in athymic nu/nu mouse xenografted with human NCI-H1975 cells assessed as reduction in body weight at 2.4 to 4.8 mg/kg, ip administered every 2 days for 11 days; format: organism-based; details: in vivo, 264 h, dose 2.4-4.8 mg/kg, time 11 day
NCI-H1975 [22] = assay: Induction of apoptosis in human NCI-H1975 cells assessed as late apoptotic cells at 0.5 micromol/L incubated for 24 hrs by Annexin V-FITC/PI staining based analysis (reference value: 8.61%); format: functional; details: dose 0.5 µmol/L, at 0.5 µM
NCI-H1975 [23] = assay: Induction of apoptosis in human NCI-H1975 cells assessed as late apoptotic cells at 0.5 micromol/L incubated for 24 hrs in presence of gefitinib by Annexin V-FITC/PI staining based analysis (reference value: 8.61%); format: functional; details: dose 0.5 µmol/L, at 0.5 µM

Chain of Pyruvate kinase PKM (P14618 2-531 limits assumed): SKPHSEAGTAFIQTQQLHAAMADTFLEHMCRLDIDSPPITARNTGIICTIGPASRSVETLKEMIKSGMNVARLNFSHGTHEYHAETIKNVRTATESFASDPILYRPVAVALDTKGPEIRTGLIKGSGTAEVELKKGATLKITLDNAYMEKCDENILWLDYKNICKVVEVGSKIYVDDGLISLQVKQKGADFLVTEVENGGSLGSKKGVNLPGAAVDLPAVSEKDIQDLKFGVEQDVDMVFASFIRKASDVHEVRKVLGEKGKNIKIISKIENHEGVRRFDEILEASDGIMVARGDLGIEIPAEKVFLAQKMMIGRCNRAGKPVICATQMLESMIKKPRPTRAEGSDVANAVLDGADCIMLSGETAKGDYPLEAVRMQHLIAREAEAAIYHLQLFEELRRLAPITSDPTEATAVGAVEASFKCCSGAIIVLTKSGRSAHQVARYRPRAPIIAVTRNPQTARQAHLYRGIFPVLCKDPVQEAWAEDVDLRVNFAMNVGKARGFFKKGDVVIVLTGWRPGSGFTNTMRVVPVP

In the case of `COC(=O)[C@H](CS[C@H](CC=C(C)C)C1=CC(=O)c2c(O)ccc(O)c2C1=O)NC(=O)CCCC[C@@H]1CCSC(c2ccccc2C)S1` (stereo not given in full), the IC50 (NCI-H1975 [1]) is reported as 1.51 µM, the Activity (HCC827 [2]) is reported as “Dose-Dependent Effect” and the Activity (A549 [3]) is reported as 11.8%. The Activity (NCI-H1975 [4]) was 23.6%, the Activity (NCI-H1975 [5]) was “Active” and the Activity (NCI-H1975 [6]) was “Active”. For the same compound, the Activity (NCI-H1975 [7]) was “Active”, the Activity (NCI-H1975 [8]) was “Active” and the Activity (NCI-H1975 [9]) was 11.8%. For the same compound, the Activity (NCI-H1299) was “Active”, the Activity (A549 [10]) was “Active” and the Activity (HCC827 [11]) was “Active”. The Activity (Pyruvate kinase PKM) was “Active”, the Activity (HCC827 [12]) was “inactive” and the inhibition [13] was “Active”. For the same compound, the Activity (NCI-H1975 [14]) was “Active”, the Activity (HCC827 [15]) was “Active” and the IC50 (NCI-H1975 [16]) was 9 µM. It also gave an Activity (NCI-H1975 [17]) of 1.82%, an Activity (NCI-H1975 [18]) of 2.67% and an Activity (NCI-H1975 [19]) of 8.16%. The IC50 (HCC827 [20]) was 6 µM, the Activity [21] was “Non-Toxic” and the Activity (NCI-H1975 [22]) was 11.2%. The Activity (NCI-H1975 [23]) was 25%.
